Data: patent US9873709B2 (priority 2013, dated 2018)

tested on: JAK1-dependent STAT6 phosphorylation downstream of IL-13 stimulation in TF-1 human erythroleukemia cells; assay: cells; settings: TF-1, read-out: IL-13-pSTAT6 IC50

**Q.** `O=C(CCC(F)(F)F)N1CC=C(c2cccn3nc(Nc4ccc(C(=O)N5CCC(Cc6ccccn6)C5)cc4)nc23)CC1` (stereo not shown) [Example 2-471, 4,4,4-trifluoro-1-[4-[2-[4-[3-(2-pyridylmethyl)pyrrolidine-1-carbonyl]anilino]-[1,2,4]triazolo[1,5-a]pyridin-8-yl]-3,6-dihydro-2H-pyridin-1-yl]butan-1-one] was tested. Which IC50 did it give?
**A.** 0.0064 µM

**Q.** For `CN(Cc1ccccc1)C1CCCN(C(=O)c2ccc(Nc3nc4c(C5=CCN(C(=O)CCC(F)(F)F)CC5)cccn4n3)cc2)C1` (stereo not shown) [Example 2-472, 1-[4-[2-[4-[3-[benzyl(methyl)amino]piperidine-1-carbonyl]anilino]-[1,2,4]triazolo[1,5-a]pyridin-8-yl]-3,6-dihydro-2H-pyridin-1-yl]-4,4,4-trifluoro-butan-1-one], which IC50 is on record?
**A.** 0.0679 µM

**Q.** With `CN(C(=O)c1ccc(Nc2nc3c(C4=CCN(C(=O)CCC(F)(F)F)CC4)cccn3n2)cc1)C1CCN(Cc2ccccc2)C1` (stereo not shown) [Example 2-473, N-(1-benzylpyrrolidin-3-yl)-N-methyl-4-[[8-[1-(4,4,4-trifluorobutanoyl)-3,6-dihydro-2H-pyridin-4-yl]-[1,2,4]triazolo[1,5-a]pyridin-2-yl]amino]benzamide] as the compound, how does the IC50 read?
**A.** 0.0481 µM

**Q.** For `O=C(CCC(F)(F)F)N1CC=C(c2cccn3nc(Nc4ccc(C(=O)N5CCN(CCN6CCOCC6)CC5)cc4)nc23)CC1` [Example 2-474, 4,4,4-trifluoro-1-[4-[2-[4-[4-(2-morpholinoethyl)piperazine-1-carbonyl]anilino]-[1,2,4]triazolo[1,5-a]pyridin-8-yl]-3,6-dihydro-2H-pyridin-1-yl]butan-1-one], which IC50 is on record?
**A.** 0.0141 µM

**Q.** For `CN1CCN(C(=O)C2CCN(C(=O)c3ccc(Nc4nc5c(C6=CCN(C(=O)CCC(F)(F)F)CC6)cccn5n4)cc3)CC2)CC1` [Example 2-475, 4,4,4-trifluoro-1-[4-[2-[4-[4-(4-methylpiperazine-1-carbonyl)piperidine-1-carbonyl]anilino]-[1,2,4]triazolo[1,5-a]pyridin-8-yl]-3,6-dihydro-2H-pyridin-1-yl]butan-1-one], which IC50 is on record?
**A.** 0.0429 µM

**Q.** With `Cc1cccnc1CN(C)C(=O)c1ccc(Nc2nc3c(C4=CCN(C(=O)CCC(F)(F)F)CC4)cccn3n2)cc1` [Example 2-476, N-methyl-N-[(3-methyl-2-pyridyl)methyl]-4-[[8-[1-(4,4,4-trifluorobutanoyl)-3,6-dihydro-2H-pyridin-4-yl]-[1,2,4]triazolo[1,5-a]pyridin-2-yl]amino]benzamide] as the compound, how does the IC50 read?
**A.** 0.0105 µM

**Q.** Which IC50 does the source give for `CN(Cc1ccc2c(c1)CCCN2C)C(=O)c1ccc(Nc2nc3c(C4=CCN(C(=O)CCC(F)(F)F)CC4)cccn3n2)cc1` [Example 2-477, N-methyl-N-[(1-methyl-3,4-dihydro-2H-quinolin-6-yl)methyl]-4-[[8-[1-(4,4,4-trifluorobutanoyl)-3,6-dihydro-2H-pyridin-4-yl]-[1,2,4]triazolo[1,5-a]pyridin-2-yl]amino]benzamide] here?
**A.** 0.113 µM

**Q.** Which IC50 does the source give for `O=C(NCCc1ccccn1)c1ccc(Nc2nc3c(C4=CCN(C(=O)CCC(F)(F)F)CC4)cccn3n2)cc1` [Example 2-478, N-[2-(2-pyridyl)ethyl]-4-[[8-[1-(4,4,4-trifluorobutanoyl)-3,6-dihydro-2H-pyridin-4-yl]-[1,2,4]triazolo[1,5-a]pyridin-2-yl]amino]benzamide] here?
**A.** 0.0048 µM

**Q.** How did the IC50 turn out when `CN1CCC(N(C)C(=O)c2ccc(Nc3nc4c(C5=CCN(S(=O)(=O)N6CC(C)(C)C6)CC5)cccn4n3)cc2)CC1` [Example 2-479, 4-[[8-[1-(3,3-dimethylazetidin-1-yl)sulfonyl-3,6-dihydro-2H-pyridin-4-yl]-[1,2,4]triazolo[1,5-a]pyridin-2-yl]amino]-N-methyl-N-(1-methyl-4-piperidyl)benzamide] was run?
**A.** 0.239 µM

**Q.** `CN1CCC(N(C)C(=O)c2ccc(Nc3nc4c(C5=CCN(C(=O)N6CC(C)(C)C6)CCC5)cccn4n3)cc2)CC1` [Example 2-480, 4-[[8-[1-(3,3-dimethylazetidine-1-carbonyl)-2,3,4,7-tetrahydroazepin-5-yl]-[1,2,4]triazolo[1,5-a]pyridin-2-yl]amino]-N-methyl-N-(1-methyl-4-piperidyl)benzamide] was tested. Which IC50 did it give?
**A.** 0.178 µM
